Source: the supplement of paper PMC4862054

Key:
Details in all cases: incubation time: 72 h
CAL-148 [1] = experiment: normalised viability (% of control), CellTiter-Blue; higher = more viable cells (about 100 = DMSO control)
Protocol: (§1)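 DSRT, CellTiter-Blue viability, 72 h incubation. Signal is normalised to DMSO and benzethonium chloride controls. Value is the normalised response at dose 9.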

CAL-51 = experiment: as above
Protocol: as §1

BT-474 = experiment: normalised response (% of control), CellTiter-Glo; higher = more viable cells (100 = DMSO, 0 = benzethonium chloride kill control)
In short: (§2)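 Breast cancer cell lines (20 µl suspension) were seeded into 384-well plates holding compound at 5 concentrations in 10-fold steps over a compound-specific 10,000-fold range, then incubated 72 h. CellTox Green fluorescence (485/520 nm) was read first, then CellTiter-Glo luminescence after 10 min at room temperature. Each plate was normalised to 0.1 % DMSO (100) and a positive kill control (0). Each value is the normalised signal at a single concentration of the series.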

BT-549 = experiment: as above
In short: as §2

CAL-120 = experiment: as above
In short: as §2

CAL-148 [2] = experiment: as above
In short: as §2

CAL-85-1 = experiment: as above
In short: as §2

DU-4475 = experiment: as above
In short: as §2

HCC1143 = experiment: as above
In short: as §2

HCC1599 = experiment: as above
In short: as §2

HCC1937 = experiment: as above
In short: as §2

HDQ-P1 = experiment: as above
In short: as §2

Hs578T = experiment: as above
In short: as §2

MCF-10A = experiment: as above
In short: as §2

MDA-MB-231 = experiment: as above
In short: as §2

MDA-MB-436 = experiment: as above
In short: as §2

MDA-MB-453 = experiment: as above
In short: as §2

MDA-MB-468 = experiment: as above
In short: as §2

MFM-223 = experiment: as above
In short: as §2

SK-BR-3 = experiment: as above
In short: as §2

| Structure (SMILES) | normalised viability (CAL-148 [1]) | normalised viability (CAL-51) | normalised response (BT-474) | normalised response (BT-549) | normalised response (CAL-120) | normalised response (CAL-148 [2]) | normalised response (CAL-85-1) | normalised response (DU-4475) | normalised response (HCC1143) | normalised response (HCC1599) | normalised response (HCC1937) | normalised response (HDQ-P1) | normalised response (Hs578T) | normalised response (MCF-10A) | normalised response (MDA-MB-231) | normalised response (MDA-MB-436) | normalised response (MDA-MB-453) | normalised response (MDA-MB-468) | normalised response (MFM-223) | normalised response (SK-BR-3) |
| --- | --- | --- | --- | --- | --- | --- | --- | --- | --- | --- | --- | --- | --- | --- | --- | --- | --- | --- | --- | --- |
| COc1ccc(S(=O)(=O)Nc2cccnc2Nc2ccc(O)cc2)cc1 [ABT-751] (10000 nM) | 12.7% | 6.42% | 53.8% | 40.3% | 61.1% | 41.2% | 40.9% | 43.6% | 55.5% | 16.5% | 71.3% | 70.1% | 17.6% | 59.8% | 46.6% | 26.8% | 50.9% | 29.2% | 38.4% | 12.3% |
| Cc1cc(Nc2nc(N[C@@H](C)c3ncc(F)cn3)ncc2Cl)[nH]n1 [AZD1480] (1000 nM) | 100% | 86.3% | 82.5% | 82.1% | 70% | 87.3% | 96% | 81.7% | 92.7% | 104% | 96% | 93.6% | 82% | 89.5% | 78.2% | 91.6% | 72.4% | 84.6% | 50.8% | 90.5% |
| CNC(=O)c1ccccc1Sc1ccc2c(/C=C/c3ccccn3)n[nH]c2c1 [Axitinib] (10000 nM) | 42.1% | 37.3% | 80.4% | 49.7% | 75.8% | 67% | 120% | 76% | 79% | 69% | 79.2% | 77.8% | 61.4% | 78.6% | 94.5% | 64.1% | 113% | 24.5% | 49.3% | 77% |
| CC(O)(CS(=O)(=O)c1ccc(F)cc1)C(=O)Nc1ccc(C#N)c(C(F)(F)F)c1 (stereo not given) [Bicalutamide] (10000 nM) | 107% | 112% | 108% | 94.2% | 105% | 107% | 101% | 98.4% | 104% | 95.5% | 93.8% | 96.4% | 95.6% | 107% | 106% | 114% | 88.5% | 109% | 101% | 103% |
| CCNC(=O)CCC/C=C\C[C@@H]1[C@@H](/C=C/[C@@H](O)CCc2ccccc2)[C@H](O)C[C@@H]1O [Bimatoprost] (5500 nM) | 92.2% | 114% | 95% | 102% | 95.8% | 88.3% | 91.1% | 96.7% | 94.8% | 89.5% | 91.9% | 91.7% | 101% | 90.3% | 99.5% | 104% | 91.2% | 91.6% | 88.2% | 83.8% |
| COc1cc(Nc2c(C#N)cnc3cc(OCCCN4CCN(C)CC4)c(OC)cc23)c(Cl)cc1Cl [Bosutinib] (10000 nM) | 9.6% | 11.1% | 2.86% | 15.6% | 43.4% | 33.3% | 0.33% | 70% | 46.6% | 13.5% | 5.6% | 9.28% | 48.5% | 1.72% | 0.86% | 5.63% | 6.11% | 1.43% | 41.2% | 1.81% |
| Cn1cc(C2=C(c3cn(C4CCN(Cc5ccccn5)CC4)c4ccccc34)C(=O)NC2=O)c2ccccc21 [Enzastaurin] (10000 nM) | 67.4% | 89.8% | 96% | 61.2% | 91.1% | 107% | 85.1% | 105% | 96.5% | 78.2% | 101% | 70.1% | 91% | 87.5% | 102% | 101% | 101% | 82.9% | 103% | 85.6% |
| CC(C)(C)NC(=O)[C@H]1CC[C@H]2[C@@H]3CC[C@H]4NC(=O)C=C[C@]4(C)[C@H]3CC[C@]12C [Finasteride] (10000 nM) | 36.5% | 33.7% | 96.5% | 91.7% | 99.7% | 105% | 96.5% | 103% | 96.6% | 97% | 97.8% | 95.7% | 99.9% | 110% | 102% | 108% | 93.4% | 102% | 93.4% | 94.4% |
| Nc1ccn([C@@H]2O[C@H](CO)[C@@H](O)C2(F)F)c(=O)n1 [Gemcitabine] (1000 nM) | 0.25% | 7.26% | 74.2% | 44.7% | 73% | 51% | 40.5% | 78.5% | 38.9% | 41.4% | 85.8% | 82.8% | 74.9% | 65.8% | 79.5% | 30.7% | 74.5% | 22.1% | 97.7% | 42.7% |
| CC(C)C[C@H](NC(=O)[C@@H](COC(C)(C)C)NC(=O)[C@H](Cc1ccc(O)cc1)NC(=O)[C@H](CO)NC(=O)[C@H](Cc1c[nH]c2ccccc12)NC(=O)[C@H](Cc1cnc[nH]1)NC(=O)[C@@H]1CCC(=O)N1)C(=O)N[C@@H](CCCNC(=N)N)C(=O)N1CCC[C@H]1C(=O)NNC(N)=O [Goserelin] (10000 nM) | 102% | 109% | 92.6% | 101% | 94.8% | 91.2% | 93.8% | 97.1% | 101% | 97.5% | 96% | 101% | 96.5% | 100% | 101% | 97.7% | 101% | 93.7% | 98.9% | 102% |
| CC(=O)[C@]1(O)Cc2c(O)c3c(c(O)c2[C@@H](O[C@H]2C[C@H](N)[C@H](O)[C@H](C)O2)C1)C(=O)c1ccccc1C3=O [Idarubicin] (1000 nM) | 1.34% | 1.95% | 16.6% | 6.26% | 30% | 0.6% | 3.35% | 0.36% | 16.6% | 7.7% | 30.1% | 39% | 13.1% | 27.3% | 24.7% | 20.6% | 31.2% | 5.57% | 9.33% | 7.62% |
| C/C(=C\c1csc(C)n1)[C@@H]1C[C@@H]2O[C@]2(C)CCC[C@H](C)[C@H](O)[C@@H](C)C(=O)C(C)(C)[C@@H](O)CC(=O)N1 [Ixabepilone] (1000 nM) | 20.9% | 57.9% | 41.9% | 20.8% | 98% | 107% | 26.1% | 100% | 97.6% | 115% | 104% | 99.1% | 99% | 95.6% | 73.8% | 103% | 106% | 23% | 101% | 104% |
| C=CCn1c(=O)c2cnc(Nc3ccc(N4CCN(C)CC4)cc3)nc2n1-c1cccc(C(C)(C)O)n1 [MK1775] (10000 nM) | 5.88% | 2.98% | 29.4% | 6.99% | 22.8% | 9.04% | 11.4% | 11.9% | 17.5% | 4.65% | 28.3% | 17.4% | 22% | 19% | 23.7% | 15.8% | 44% | 6.6% | 36.1% | 8.92% |
| CO[C@@H]1[C@H](N(C)C(=O)c2ccccc2)C[C@H]2O[C@]1(C)n1c3ccccc3c3c4c(c5c6ccccc6n2c5c31)C(=O)NC4 [Midostaurin] (10000 nM) | 86.3% | 4.73% | 41.7% | 4.02% | 46.2% | 88.1% | 76% | 34.1% | 45.9% | 102% | 50.1% | 54.4% | 16.8% | 24.9% | 40.7% | 68.8% | 110% | 29.4% | 66.5% | 45.2% |
| CO[C@@]12[C@H](COC(N)=O)C3=C(C(=O)C(C)=C(N)C3=O)N1C[C@@H]1N[C@@H]12 [Mitomycin C] (10000 nM) | 1.89% | 4.34% | 69.5% | 15% | 88.1% | 51% | 57% | 69% | 71% | 57.4% | 73.3% | 84.1% | 91.1% | 73% | 82.5% | 41.7% | 85.8% | 22.5% | 86.5% | 58.4% |
| CCNC(=O)c1noc(-c2cc(C(C)C)c(O)cc2O)c1-c1ccc(CN2CCOCC2)cc1 [NVP-AUY922] (1000 nM) | 18.6% | 8.3% | 25.6% | 39.8% | 47.9% | 29.3% | 21% | -0.14% | 38% | 77% | 28.3% | 23.6% | 35.6% | 16.7% | 24.9% | 50.9% | 26.3% | 22.6% | 36.3% | 39.4% |
| CC1(C)CCC(c2ccc(Cl)cc2)=C(CN2CCN(c3ccc(C(=O)NS(=O)(=O)c4ccc(N[C@H](CCN5CCOCC5)CSc5ccccc5)c(S(=O)(=O)C(F)(F)F)c4)cc3)CC2)C1 [Navitoclax] (10000 nM) | 66.7% | 77% | 23.5% | 86.7% | 37.4% | 72.4% | 86.2% | 72.4% | 77.8% | 93.1% | 56.9% | 66.8% | 79.3% | 92.5% | 16.1% | 90.7% | 60.3% | 78% | 55.6% | 73.2% |
